Results reported in patent US20210214560A1, “COMPOUND, COLORING COMPOSITION, INK, TONER, COLORING RESIN COMPOSITION, AND COMPOSITION FOR DYEING FIBER” (FUJIFILM Corporation, priority 2018, published 2021).

Experiments:
Format in all cases: physicochemical
[1] = Production of toner (melting and mixing with resin at 150° C.); conditions: 3 g compound with 100 g styrene-acrylic acid ester copolymer, melted and mixed at 150° C.
Procedure: After mixing and pulverizing 3 g of the compound according to the embodiment of the present invention (compound (1-36)) and 100 g of a resin for toner [styrene-acrylic acid ester copolymer; HIMER TB-1000F (trade name, manufactured by Sanyo Chemical Industries, Ltd.)] with a ball mill, the resultant was heated at 150° C. to be melted and mixed, and the results were cooled, roughly pulverized using a hammer mill, and then finely pulverized using a fine pulverizer with an air-jet system. Furthermore, particles which have a particle diameter of 1 to 20 μm were classified and selected to produce a toner.
900 g of carrier iron powder (EFV250/400, trade name, manufactured by Powdertech Co., Ltd.) were uniformly mixed with 10 g of the toner to prepare a developer. Using this developer, copying was performed with a dry type plain paper electrophotographic copier [NP-5000, trade name, manufactured by Canon Inc.].

[2] = Evaluation of heat stability (heat resistance), powder heated at 180° C. for 5 minutes; conditions: oven 180° C. for 5 minutes, A/A0×100, absorbance in tetrahydrofuran
Procedure: (§1) Heat stability of each compound was evaluated by the following procedure. 10 mg of the powder of each compound was dissolved in 500 mL of tetrahydrofuran, and the absorption spectrum was measured to obtain a reference absorbance (A0). On the other hand, 10 mg of the powder of each compound was weighed in a 4 cm square aluminum cup, placed in an oven, and heated at 180° C. for 5 minutes. The entire amount of the powder after heating was dissolved in 500 mL of tetrahydrofuran, and the absorption spectrum was measured to obtain an absorbance (A) after the heating test. The residual rate of each compound was calculated by the following expression to evaluate heat stability.
Residual rate of compound (%)=A/A0×100

[3] = Evaluation of maximum absorption wavelength (absorption spectrum in tetrahydrofuran solution); conditions: 1×10^−6 mol/L
[4] = Production of coloring resin composition (kneading with polybutylene terephthalate at 190° C.); conditions: 1 g colorant with 100 g polybutylene terephthalate, biaxial extruder, cylinder temperature 190° C.
Procedure: Using a henschel mixer, a blend of 100 g of polybutylene terephthalate (manufactured by Wintech Polymer Ltd., trade name, DURANEX 2002, melting point: 225° C.) and 1 g of the compound according to the embodiment of the present invention (compound (1-48)) was supplied to a biaxial extruder (equipment: TEX28V manufactured by Japan Steel Works, Ltd., screw speed: 200 rotations per minute (rpm)), and kneading was performed at a cylinder temperature of 190° C. to obtain a coloring resin pellet (coloring resin composition). The torque of the extruder was stable and extrusion could be continued, and the discharged strands could be stably conveyed to the pelletizer.
A coloring resin pellet was obtained in the same manner as in Example 25, except that the compound (1-48) of Example 25 was changed to OIL BLACK HBB (manufactured by Orient Chemical Industries Co., Ltd., trade name).

[5] = Evaluation 2 of heat stability, powder heated at 200° C. for 5 minutes; conditions: oven 200° C. for 5 minutes, A2/A0×100, absorbance in tetrahydrofuran
Procedure: as §1, with “200°” for “180°”, “(A2)” for “(A)”
Residual rate of compound (%)=A2/A0×100

[6] = optical path length 10 mm (Table 7)
[7] = optical path length 10 mm (Table 9)

SMILES	Pyrolysis in melting and mixing in the toner production [1]	Residual rate of compound [2] [%]	Absorption maximum wavelength [3, 6] [nm]	Molar light absorption coefficient [3, 6]	Contamination due to pyrolysis in kneading of coloring resin pellet [4]	Residual rate of compound [5] [%]	Absorption maximum wavelength [3, 7] [nm]	Molar light absorption coefficient [3, 7] [L/mol/cm]
CC1(C)Nc2cccc3c(N=Nc4ccc(N=Nc5ccccc5[N+](=O)[O-])c5ccccc45)ccc(c23)N1 [(1-36)]	Pyrolysis in melting and mixing in the toner production was reduced	98	638	30,100 L · mol^−1 · cm^−1	–	–	–	–
CC(=O)c1ccccc1N=Nc1ccc(N=Nc2ccc3c4c(cccc24)NC(C)(C)N3)c2ccccc12 [(1-48)]	–	99	624	34,100 L · mol^−1 · cm^−1	No contamination due to pyrolysis was observed	–	–	–
CC1(C)Nc2cccc3c(N=Nc4ccc(N=Nc5ccccc5)c5ccccc45)ccc(c23)N1 [Comparative compound C, reference compound]	–	–	–	–	–	59	607	32000
CC1(C)Nc2cccc3ccc(N=Nc4ccc(N=Nc5ccccc5)c5ccccc45)c(c23)N1 [Comparative compound D, reference compound]	–	–	–	–	–	65	599	34200
CCCC1(C)Nc2cccc3ccc(N=Nc4ccc(N=Nc5ccccc5Cl)c5ccccc45)c(c23)N1 (centres unmarked) [Compound (3-7)]	–	–	–	–	–	85	617	36200
